For one series, the system named is mice. The conditions noted are these: single intravenous dose of 12.5 μg/kg; cited from earlier work.
The conditions of series [1]: cited from earlier work.
A further series concerns HL60 cells. As to the kind of experiment: In vitro cytotoxicity towards HL60 cells. The series is classed as cell-based, human. The conditions noted are these: HL60/s cells, 5-day exposure; read-out: IC50 Concentration. On the procedure: (§1) Sulfide or disulfide-containing and mercapto-containing prodrugs of CC-1065 analogs of the present invention can be evaluated for their ability to suppress proliferation of various unwanted cell lines in vitro under incubation conditions. Cell lines such as, for example, Ramos cell line and HL60 can easily be used for the assessment of the cytotoxicity of these compounds. Cells to be evaluated can be exposed to the compounds for 24 hours and the surviving fractions of cells measured in direct assays by known methods. IC50 values can then be calculated from the results of the assays.
Cytotoxicity of the prodrugs of the present invention and their conjugates with cell binding agents can be measured after cleavage of the protecting group and conversion into the active drug. Cytotoxicity to non-adherent cell lines such as Namalwa and HL60 can be measured by back-extrapolation of cell proliferation curves as described in Goldmacher et al, 135 J. Immunol. 3648-3651 (1985). Cytotoxicity of these compounds to adherent cell lines such as A-375 and SCaBER can be determined by clonogenic assays as described in Goldmacher et al, 102 J. Cell Biol. 1312-1319 (1986). […]
• Cytotoxicity of DC07-SMe (FIG. 2) and DC1-SMe (FIG. 1D) towards Ramos and HL60/S cells has been measured in vitro with 5-day exposure. […]
• Cytotoxicity of DC1-SPy and DC07-SPy towards Ramos and HL60 cells has been measured. […]

Another series deals with Ramos cells. Nature of the series: In vitro cytotoxicity towards Ramos cells. The class given is cell-based, human. As for the experimental part:
as §1
(§2) Cytotoxicity of the prodrugs of the present invention and their conjugates with cell binding agents can be measured after cleavage of the protecting group and conversion into the active drug. Cytotoxicity to non-adherent cell lines such as Namalwa and HL60 can be measured by back-extrapolation of cell proliferation curves as described in Goldmacher et al, 135 J. Immunol. 3648-3651 (1985). Cytotoxicity of these compounds to adherent cell lines such as A-375 and SCaBER can be determined by clonogenic assays as described in Goldmacher et al, 102 J. Cell Biol. 1312-1319 (1986).
(§3) The human cancer cell lines HL60, Namalwa, A-375, COLO205 and Ramos were obtained from the American Type Culture Collection (ATCC). Kara is a murine tumor cell line that has been stably transfected with the human CD33 antigen.
• Cytotoxicity of DC07-SMe (FIG. 2) and DC1-SMe (FIG. 1D) towards Ramos and HL60/S cells has been measured in vitro with 5-day exposure. IC50 are shown below.
• Cytotoxicity of DC1-SPy and DC07-SPy towards Ramos and HL60 cells has been measured. Results are given in FIG. 7 and IC50 are shown below.
(§4) • Cytotoxicity of DC08-SSPy towards Namalwa and Ramos cells has been measured. Results are given in FIG. 8 and IC50 are shown below.
• Cytotoxicity of MY9-6-DC07 (disulfide linked) towards antigen positive Kara and antigen negative Ramos cells has been measured. Results are given in FIG. 9 and IC50 are shown below.

A short description of series [2]: Conversion of prodrug by incubation in mice serum. The series is classed as in vitro ADME. The text has this:
(§5) The synthesis of prodrugs DC07 (7a), DC08 (8a) and DC107 (FIG. 4) is described herein. DC07 and DC08 as well as DC107 are derived from the parent drug DC1 and DC101, while DC09 (9a) can be prepared from the pegylated parent drug DC5 which was described in U.S. Pat. No. 6,756,397 B2 (FIG. 3). […] These drugs also have enhanced water solubility as compared with DC1.

Series [3] in a line: Stability in aqueous solutions. The series is classed as physicochemical. The conditions noted are these: pH 5.5 or below.
From the text: as §5

Series [4] in a line: Conversion of prodrug by incubation in serum or plasma. The series is classed as in vitro ADME.
From the text: as §5

Another series concerns Namalwa cells. As to the kind of experiment: In vitro cytotoxicity towards Namalwa cells. The series is classed as cell-based, human. The conditions noted are these: Namalwa cells (FIG. 8).
From the text: as §2, §3, §4

A further series has as its system COLO 205 cells. As to the kind of experiment: In vitro cytotoxicity towards antigen positive COLO 205 cells. The series is classed as cell-based, human.
From the text: as §2, §3
(§6) • Cytotoxicity of huC242-DC07 (thioether linked) towards antigen positive COLO 205 and antigen negative A-375 cells has been measured. Results are given in FIG. 10 and IC50 are shown below.

The subject of a further series is A-375 cells. Nature of the series: In vitro cytotoxicity towards antigen negative A-375 cells. The class given is cell-based, human.
From the text: as §2, §3, §6

Where [5] appears, read: Ramos cells, 5-day exposure, read-out: IC50 Concentration.

Read-outs that look alike come from different tables or passages of the source.

This is an account of results in patent publication US8012978B2, “Prodrugs of CC-A1065 analogs” (ImmunoGen, Inc., priority 2006, dated 2011).

With `COc1c(O)c2c(c3cc(C(=O)N4CCc5c4c(O)c(OC)c4[nH]c(C(=O)N6CC7CC78C6=CC(=O)c6[nH]cc(C)c68)cc54)[nH]c13)CCN2C(N)=O` (stereo not shown) [CC-1065], in the series on mice, the toxicity entry is reported as “delayed hepatotoxicity leading to mortality on day 50”. Moreover, in series [1], the “potency in vitro relative to doxorubicin, methotrexate and vincristine” value is “about 1000 fold”.

`CSSCCC(=O)Nc1ccc2[nH]c(C(=O)Nc3ccc4[nH]c(C(=O)N5C[C@@H](CCl)c6c5cc(O)c5ccccc65)cc4c3)cc2c1` [DC1-SMe, 1-[S]-(chloromethyl)-5-hydroxy-3-{{5-[5-(3-methyldithiopropionyl)indol-2-yl-carbonylamino]indole-2-yl}carbonyl}-1,2-dihydro-3H-benz[e]indole, reference compound]: the IC50 came to 0.036 nM in the series with HL60 cells and 0.062 nM with Ramos cells (setting [5]).

For the molecule `CSSCCC(=O)Nc1ccc2[nH]c(C(=O)Nc3ccc4[nH]c(C(=O)N5C[C@@H](CCl)c6c5cc(OC(=O)Nc5cccc(S(=O)(=O)O)c5)c5ccccc65)cc4c3)cc2c1` [DC07-SMe], the IC50 was 0.05 nM with HL60 cells and 0.12 nM in the series on Ramos cells (setting [5]). Besides, in series [2], the “conversion into the parent drug” value is reported as “converts it into the parent drug DC1SMe”.

With `O=C(CCS)Nc1ccc2[nH]c(C(=O)Nc3ccc4[nH]c(C(=O)N5C[C@@H](CCl)c6c5cc(OC(=O)Nc5cccc(S(=O)(=O)O)c5)c5ccccc65)cc4c3)cc2c1` [DC07], the “stability in aqueous solutions” value in series [3] is on record as “extremely stable”. In addition, the “conversion into the parent drug” value in [4] is on record as “can be converted into the parent drug DC1”.

For the molecule “(S)—N-[2-{(1-chloromethyl)-1,2-dihydro-5-[(3-hydroxysulfonylmethyl-phenyl)aminocarbonyloxy]-3H-benz(e)indol-3-yl}carbonyl]-H-indol-5-yl]-5-{[3-(2-pyridyldithio)-propanoyl]-amino}-1H-indole-2-carboxamide [DC08-SSPy]”, the IC50 in the series with Namalwa cells came out at 0.42 nM; with Ramos cells (Ramos cells (FIG. 8), read-out: IC50), 0.42 nM.

B1: huC242-DC07: huC242-DC07 (thioether linked) conjugate (conjugate, chains of the INN, looked up)
VH: QVQLVQSGAEVKKPGETVKISCKASDYTFTYYGMNWVKQAPGQGLKWMGWIDTTTGEPTYAQKFQGRIAFSLETSASTAYLQIKSLKSEDTATYFCARRGPYNWYFDVWGQGTTVTVSS
VL: DIVMTQSPLSVPVTPGEPVSISCRSSKSLLHSNGNTYLYWFLQRPGQSPQLLIYRMSNLVSGVPDRFSGSGSGTAFTLRISRVEAEDVGVYYCLQHLEYPFTFGPGTKLELK
modifications: DC07 drug, thioether linked
notes: huC242-DC07 (thioether linked) conjugate
In the case of B1, the IC50 amounted to 0.035 nM in the series on COLO 205 cells and 1.3 nM in the series on A-375 cells.
